Measured values taken from BindingDB's records for doi:10.1021/jm030603w (Purdue Pharma, 2005).
pKi: −log10 of the molar value. Several values for one entry are separate records, joined by “and”; a condition that tells them apart may be missing. Identical values can stand only once. Counter-ions that a name gives are not always drawn.

Tests used:
Test in all cases: PDE Activity Assay
[1] = target: cAMP-specific 3',5'-cyclic phosphodiesterase 4A (Homo sapiens, UniProt P27815); details: pH 8; 22 °C
cAMP-specific 3',5'-cyclic phosphodiesterase 4A, sequence (P27815 whole entry): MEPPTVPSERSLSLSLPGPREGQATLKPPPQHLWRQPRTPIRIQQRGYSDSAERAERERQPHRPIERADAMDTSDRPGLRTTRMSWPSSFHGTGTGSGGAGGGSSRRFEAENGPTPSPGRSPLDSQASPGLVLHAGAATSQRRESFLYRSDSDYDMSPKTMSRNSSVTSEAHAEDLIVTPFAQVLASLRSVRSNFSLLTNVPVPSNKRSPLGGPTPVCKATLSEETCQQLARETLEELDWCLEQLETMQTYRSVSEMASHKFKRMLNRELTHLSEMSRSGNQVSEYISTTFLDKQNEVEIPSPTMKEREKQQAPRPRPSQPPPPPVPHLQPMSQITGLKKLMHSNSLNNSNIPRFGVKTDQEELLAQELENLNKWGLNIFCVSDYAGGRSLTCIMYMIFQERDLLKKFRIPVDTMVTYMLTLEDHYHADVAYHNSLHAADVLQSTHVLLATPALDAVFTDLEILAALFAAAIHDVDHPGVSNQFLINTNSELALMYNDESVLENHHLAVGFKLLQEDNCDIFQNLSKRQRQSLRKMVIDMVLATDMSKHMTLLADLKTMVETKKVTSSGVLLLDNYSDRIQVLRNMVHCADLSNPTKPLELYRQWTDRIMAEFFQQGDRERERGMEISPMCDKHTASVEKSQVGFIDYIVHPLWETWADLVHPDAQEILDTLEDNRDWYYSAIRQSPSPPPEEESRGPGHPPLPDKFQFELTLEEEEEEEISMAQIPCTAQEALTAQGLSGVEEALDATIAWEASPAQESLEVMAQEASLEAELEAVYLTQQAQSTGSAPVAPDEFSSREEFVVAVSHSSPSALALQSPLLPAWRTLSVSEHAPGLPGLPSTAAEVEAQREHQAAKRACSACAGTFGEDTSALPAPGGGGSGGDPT

[2] = target: cAMP-specific 3',5'-cyclic phosphodiesterase 4B (Homo sapiens, UniProt Q07343)
cAMP-specific 3',5'-cyclic phosphodiesterase 4B, sequence (Q07343 whole entry): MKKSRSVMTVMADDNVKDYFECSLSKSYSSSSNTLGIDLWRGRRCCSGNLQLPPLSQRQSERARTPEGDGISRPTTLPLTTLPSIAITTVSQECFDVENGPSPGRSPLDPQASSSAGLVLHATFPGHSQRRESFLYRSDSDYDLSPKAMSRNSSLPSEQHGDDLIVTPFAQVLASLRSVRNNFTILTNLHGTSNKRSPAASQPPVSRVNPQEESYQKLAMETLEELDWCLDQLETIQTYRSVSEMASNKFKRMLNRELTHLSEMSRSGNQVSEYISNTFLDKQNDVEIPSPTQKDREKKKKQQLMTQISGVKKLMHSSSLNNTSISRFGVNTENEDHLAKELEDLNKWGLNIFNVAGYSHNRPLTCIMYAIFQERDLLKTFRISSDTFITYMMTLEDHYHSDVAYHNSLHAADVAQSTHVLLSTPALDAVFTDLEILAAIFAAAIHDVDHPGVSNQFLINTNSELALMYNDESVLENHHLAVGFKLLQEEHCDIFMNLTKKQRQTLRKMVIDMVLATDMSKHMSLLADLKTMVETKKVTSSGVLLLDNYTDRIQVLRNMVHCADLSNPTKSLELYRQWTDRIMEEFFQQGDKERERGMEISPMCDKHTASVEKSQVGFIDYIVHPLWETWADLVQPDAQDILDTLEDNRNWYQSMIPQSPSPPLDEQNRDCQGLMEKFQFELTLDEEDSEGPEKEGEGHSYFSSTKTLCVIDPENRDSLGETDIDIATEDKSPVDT

[3] = target: cAMP-specific 3',5'-cyclic phosphodiesterase 4D (Homo sapiens, UniProt Q08499)
cAMP-specific 3',5'-cyclic phosphodiesterase 4D, sequence (Q08499 whole entry): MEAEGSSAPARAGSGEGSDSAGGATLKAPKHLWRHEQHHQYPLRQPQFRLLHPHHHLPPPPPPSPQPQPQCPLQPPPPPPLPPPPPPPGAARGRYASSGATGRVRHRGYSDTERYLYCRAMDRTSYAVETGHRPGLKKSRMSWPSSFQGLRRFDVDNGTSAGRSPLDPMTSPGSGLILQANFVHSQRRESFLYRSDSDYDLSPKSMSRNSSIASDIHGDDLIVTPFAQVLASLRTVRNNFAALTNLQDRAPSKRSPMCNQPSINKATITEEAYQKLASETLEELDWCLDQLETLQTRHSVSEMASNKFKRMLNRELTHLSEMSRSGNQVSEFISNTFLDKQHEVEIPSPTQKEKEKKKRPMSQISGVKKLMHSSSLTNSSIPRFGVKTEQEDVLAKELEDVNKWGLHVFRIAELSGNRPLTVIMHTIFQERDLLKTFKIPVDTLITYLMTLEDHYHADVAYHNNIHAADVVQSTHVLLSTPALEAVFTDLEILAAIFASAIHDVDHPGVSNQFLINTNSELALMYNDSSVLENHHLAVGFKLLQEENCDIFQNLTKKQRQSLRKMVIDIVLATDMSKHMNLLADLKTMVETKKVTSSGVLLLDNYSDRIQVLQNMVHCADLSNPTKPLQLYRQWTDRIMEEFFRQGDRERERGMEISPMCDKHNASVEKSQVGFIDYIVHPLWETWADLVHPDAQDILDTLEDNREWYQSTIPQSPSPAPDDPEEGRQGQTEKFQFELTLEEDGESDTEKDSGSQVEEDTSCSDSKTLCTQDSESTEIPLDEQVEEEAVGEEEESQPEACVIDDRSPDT

What does the source list for `COc1ccc(Cn2cnc(N)c3nc(C(C)(C)OCc4ccc(Cl)c(Cl)c4)nc2-3)cc1OC1CCCC1` [3-{[3-(cyclopentyloxy)-4-methoxyphenyl]methyl}-8-{2-[(3,4-dichlorophenyl)methoxy]propan-2-yl}-3H-purin-6-amine]?
pKi [1]: 6.78; pKi [2]: 8.01

`COc1ccc(COC(C)(C)c2nc3c(N)ncn(Cc4ccc(OC)c(OC5CCCC5)c4)c-3n2)cc1OC` [3-(3-Cyclopentyloxy-4-methoxy-benzyl)-8-[1-(3,4-dimethoxy-benzyloxy)-1-methyl-ethyl]-3Hpurin-6-ylamine Fumarate] was tested. Which pKi [1] did it give?
The pKi was 6.39.

What about the pKi [2] of the same compound?
The pKi was 7.37.

How did the pKi [1] turn out when `COc1ccc(Cn2cnc(N)c3nc(C(C)(C)OCc4ccc(C(C)(C)C)cc4)nc2-3)cc1OC1CCCC1` [3-(3-Cyclopentyloxy-4-methoxy-benzyl)-8-[1-(4-tert-butyl-benzyloxy)-1-methyl-ethyl]-3Hpurin-6-ylamine] was run?
The pKi was 6.76.

What about the pKi [2] of the same compound?
Its pKi is 8.24.

What does the source list for `COc1cc(COC(C)(C)c2nc3c(N)ncn(Cc4ccc(OC)c(OC5CCCC5)c4)c-3n2)cc(OC)c1` [(2E)-but-2-enedioic acid; 3-{[3-(cyclopentyloxy)-4-methoxyphenyl]methyl}-8-{2-[(3,5-dimethoxyphenyl)methoxy]propan-2-yl}-3H-purin-6-amine]?
pKi [1]: 6.65; pKi [2]: 7.66

With `COc1ccc(Cn2cnc(N)c3nc(C(C)OCc4ccccc4)nc2-3)cc1OC1CCCC1` (stereo not given) [8-[1-(benzyloxy)ethyl]-3-{[3-(cyclopentyloxy)-4-methoxyphenyl]methyl}-3H-purin-6-amine] as the compound, how does the pKi [1] read?
Its pKi is 4.82.

And the pKi [2]?
The pKi was 6.27.

What about the pKi [3] of the same compound?
The pKi was 5.35 and 6.19 and 6.23.

How did the pKi [1] turn out when `COc1ccc(Cn2cnc(N)c3nc(C(C)(C)OCc4ccc(F)c(F)c4)nc2-3)cc1OC1CCCC1` [3-(3-Cyclopentyloxy-4-methoxy-benzyl)-8-[1-(3,4-difluoro-benzyloxy)-1-methyl-ethyl]-3Hpurin-6-ylamine Fumarate] was run?
Its pKi is 6.61.

What about the pKi [2] of the same compound?
The pKi was 7.76.

What does the source list for `COc1ccc(Cn2cnc(N)c3nc(C(C)(C)OCc4ccccc4F)nc2-3)cc1OC1CCCC1` [3-{[3-(cyclopentyloxy)-4-methoxyphenyl]methyl}-8-{2-[(2-fluorophenyl)methoxy]propan-2-yl}-3H-purin-6-amine]?
pKi [1]: 6.57; pKi [2]: 7.72

What does the source list for `COc1ccc(Cn2cnc(N)c3nc(C(C)(C)OCc4ccc(C#N)cc4)nc2-3)cc1OC1CCCC1` [3-(3-Cyclopentyloxy-4-methoxy-benzyl)-8-[1-(4-cyano-benzyloxy)-1-methyl-ethyl]-3Hpurin-6-ylamine]?
pKi [1]: 5.92; pKi [2]: 7.15

With `COc1ccc(Cn2cnc(N)c3nc(C(C)(C)OCc4ccc(Cl)cc4)nc2-3)cc1OC1CCCC1` [8-{1-[(4-Chlorobenzyl)oxy]-1-methyl-ethyl}-3-[3-cyclopentyloxy)-4-methoxybenzyl]-3H-purin-6-amine] as the compound, how does the pKi [1] read?
Its pKi is 6.90.

What about the pKi [2] of the same compound?
The pKi was 7.96.

Which results are given for `COc1ccc(Cn2cnc(N)c3nc(C(C)(C)OCc4ccc(OC(F)(F)F)cc4)nc2-3)cc1OC1CCCC1` [3-{[3-(cyclopentyloxy)-4-methoxyphenyl]methyl}-8-(2-{[4-(trifluoromethoxy)phenyl]methoxy}propan-2-yl)-3H-purin-6-amine]?
pKi [1]: 6.38; pKi [2]: 7.58

How did the pKi [1] turn out when `COc1ccc(Cn2cnc(N)c3nc(C(C)(C)OCc4ccc(C(F)(F)F)cc4)nc2-3)cc1OC1CCCC1` [3-{[3-(cyclopentyloxy)-4-methoxyphenyl]methyl}-8-(2-{[4-(trifluoromethyl)phenyl]methoxy}propan-2-yl)-3H-purin-6-amine] was run?
Its pKi is 6.51.

And the pKi [2]?
The pKi was 7.48.

What does the source list for `COc1ccc(Cn2cnc(N)c3nc(C(C)(C)OCc4cccc(F)c4)nc2-3)cc1OC1CCCC1` [3-(3-Cyclopentyloxy-4-methoxy-benzyl)-8-[1-(3-fluoro-benzyloxy)-1-methyl-ethyl]-3H-purin-6-ylamine]?
pKi [1]: 6.68; pKi [2]: 7.94

How did the pKi [1] turn out when `COc1ccc(Cn2cnc(N)c3nc(C(C)(C)OCc4ccc5c(c4)OCO5)nc2-3)cc1OC1CCCC1` [3-(3-Cyclopentyloxy-4-methoxy-benzyl)-8-[1-(3,4-methylenedioxy-benzyloxy)-1-methyl-ethyl]-3Hpurin-6-ylamine] was run?
The pKi was 6.83.

And the pKi [2]?
Its pKi is 7.67.

Which results are given for `COc1ccc(COC(C)c2nc3c(N)ncn(Cc4ccc(OC)c(OC5CCCC5)c4)c-3n2)cc1` (stereo not given) [3-(3-Cyclopentyloxy-4-methoxy-benzyl)-8-[1-(4-methoxy-benzyloxy)-ethyl]-3H-purin-6-ylamine]?
pKi [1]: 5.28; pKi [2]: 6.37

How did the pKi [1] turn out when `COc1cccc(COC(C)(C)c2nc3c(N)ncn(Cc4ccc(OC)c(OC5CCCC5)c4)c-3n2)c1` [3-{[3-(cyclopentyloxy)-4-methoxyphenyl]methyl}-8-{2-[(3-methoxyphenyl)methoxy]propan-2-yl}-3H-purin-6-amine] was run?
Its pKi is 6.76.

What about the pKi [2] of the same compound?
The pKi was 7.89.

With `COc1ccc(COC(C)(C)c2nc3c(N)ncn(Cc4ccc(OC)c(OC5CCCC5)c4)c-3n2)cc1` [3-{[3-(cyclopentyloxy)-4-methoxyphenyl]methyl}-8-{2-[(4-methoxyphenyl)methoxy]propan-2-yl}-3H-purin-6-amine] as the compound, how does the pKi [1] read?
The pKi was 6.95.

And the pKi [2]?
Its pKi is 7.99.

`COc1ccc(Cn2cnc(N)c3nc(C(C)(C)OCc4ccccc4)nc2-3)cc1OC1CCCC1` [8-[2-(benzyloxy)propan-2-yl]-3-{[3-(cyclopentyloxy)-4-methoxyphenyl]methyl}-3H-purin-6-amine hydrochloride] was tested. Which pKi [1] did it give?
The pKi was 6.75.

And the pKi [2]?
Its pKi is 8.05.

Which results are given for `COc1ccc(Cn2cnc(N)c3nc(C(C)(C)OCc4ccc(C)cc4)nc2-3)cc1OC1CCCC1` [3-(3-Cyclopentyloxy-4-methoxy-benzyl)-8-[1-(4-methyl-benzyloxy)-1-methyl-ethyl]-3H-purin-6-ylamine]?
pKi [1]: 6.69; pKi [2]: 8.01

How did the pKi [1] turn out when `COc1ccc(Cn2cnc(N)c3nc(C(C)OCc4ccc(F)cc4)nc2-3)cc1OC1CCCC1` (stereo not given) [3-{[3-(cyclopentyloxy)-4-methoxyphenyl]methyl}-8-{1-[(4-fluorophenyl)methoxy]ethyl}-3H-purin-6-amine] was run?
The pKi was 5.47.

And the pKi [2]?
Its pKi is 6.57.

`COc1ccc(Cn2cnc(N)c3nc(C(C)(C)COc4cccs4)nc2-3)cc1OC1CCCC1` [3-{[3-(cyclopentyloxy)-4-methoxyphenyl]methyl}-8-[2-methyl-1-(thiophen-2-yloxy)propan-2-yl]-3H-purin-6-amine] was tested. Which pKi [1] did it give?
Its pKi is 6.63.

And the pKi [2]?
The pKi was 7.33.

How did the pKi [1] turn out when `COc1ccccc1COC(C)(C)c1nc2c(N)ncn(Cc3ccc(OC)c(OC4CCCC4)c3)c-2n1` [3-(3-Cyclopentyloxy-4-methoxy-benzyl)-8-[1-(2-methoxy-benzyloxy)-1-methyl-ethyl]-3H-purine-6-ylamine] was run?
Its pKi is 6.86.

And the pKi [2]?
The pKi was 7.96.

`COc1ccc(Cn2cnc(N)c3nc(C(C)(C)COc4ccsc4)nc2-3)cc1OC1CCCC1` [3-{[3-(cyclopentyloxy)-4-methoxyphenyl]methyl}-8-[2-methyl-1-(thiophen-3-yloxy)propan-2-yl]-3H-purin-6-amine] was tested. Which pKi [1] did it give?
Its pKi is 6.65.

What about the pKi [2] of the same compound?
Its pKi is 8.02.
